Source: EP4570793A1, “5-HT2A RECEPTOR INVERSE AGONIST, AND PREPARATION METHOD THEREFOR AND USE THEREOF” (Luye Innomind Pharma Shijiazhuang Co., Ltd., priority 2022, dated 2024)
pIC50: −log10 of the molar value. Like-named read-outs stand apart in the source and are kept apart here.

Legend:
[1] = In-vitro liver microsomal stability (human); assay type: in vitro ADME; conditions: Human liver microsomes, 1 µM, 0.5 mg/mL, NADPH
Method: (§1) Test Example 3. Evaluation of In-Vitro Liver Microsomal Stability
(§2) • 1) Preparation of test sample working solution: A test sample was diluted to 100 µM with methanol. • 2) Preparation of liver microsome working solution: Liver microsomes were diluted to 0.56 mg/mL with 100 mM phosphate-buffered saline. • 3) Preparation of working solution of reduced nicotinamide adenine dinucleotide phosphate (NADPH): A proper amount of NADPH was weighed out and diluted to 20 mM with phosphate-buffered saline, and then an equal volume of a 60 mM MgCl2 solution was added. • 4) Preparation of stop solution: Tolbutamide was diluted to 20 ng/mL with acetonitrile to serve as a stop solution containing an internal standard.
(§3) • 1) Anti-adsorption EP tubes for incubation were prepared and labeled with species, test samples, control samples (testosterone and dextromethorphan), time points (0 min, 5 min, 10 min, 20 min, 30 min, 60 min, Blank60, and NCF60), etc. • 2) 2 µL of test or control sample working solution and 178 µL of liver microsome working solution were added to each tube. For the Blank tube, 2 µL of acetonitrile was added instead of the test sample. The tubes were preincubated in a water bath at 37 °C for about 10 min, with 3 replicates set up for each sample. • 3) After the pre-incubation was completed, 20 µL of NADPH working solution was added to each tube except for the 0 min and NCF60 tubes to start the reaction. For the NCF60 tube, 20 µL of phosphate-buffered saline (containing 30 mM MgCl2) was added. In the incubation system, the final concentration of the test or control sample was 1 µM, the final concentration of liver microsomes was 0.5 mg/mL, the final concentration of NADPH was 1 mM, and the final concentration of MgCl2 was 3 mM. • 4) For the 0 min sample, 600 µL of stop solution was added, followed by the addition of the NADPH working solution. For the other samples, after each of them was incubated for the corresponding time, 600 µL of stop solution was added to stop the reaction. • 5) After the reaction was stopped, each sample was vortexed for 30 s and then centrifuged at 13500 rpm for 10 min. Then, 100 µL of the supernatant was transferred to an EP tube, and 100 µL of Milli-Q water was added. The mixture was well mixed by vortexing and analyzed by LC-MS/MS. • 6) Testosterone and dextromethorphan were used as positive control samples under the same conditions to assess the stability and reliability of the system.
Table 2: Test data for the compounds of the present disclosure in human and rat liver microsomes

[2] = In-vitro liver microsomal stability (dog); assay type: in vitro ADME; conditions: Dog liver microsomes, 1 µM, 0.5 mg/mL, NADPH
Method: as §1, §2
as §3, with “system. […]” for “system.”

5-HT2A receptor = 5-HT2A receptor (Homo sapiens, UniProt P28223); experiment: Assay for 5-HT2A receptor inverse agonist activity (NIH3T3-5-HT2A R cells, Bright-Glo luciferase, cell inhibition rate); conditions: for IC50: 5-HT2A inverse agonist activity IC50 (nM), NIH3T3-5HT2A R cells, 120 h, luminescence
5-HT2A receptor, sequence (P28223 whole entry): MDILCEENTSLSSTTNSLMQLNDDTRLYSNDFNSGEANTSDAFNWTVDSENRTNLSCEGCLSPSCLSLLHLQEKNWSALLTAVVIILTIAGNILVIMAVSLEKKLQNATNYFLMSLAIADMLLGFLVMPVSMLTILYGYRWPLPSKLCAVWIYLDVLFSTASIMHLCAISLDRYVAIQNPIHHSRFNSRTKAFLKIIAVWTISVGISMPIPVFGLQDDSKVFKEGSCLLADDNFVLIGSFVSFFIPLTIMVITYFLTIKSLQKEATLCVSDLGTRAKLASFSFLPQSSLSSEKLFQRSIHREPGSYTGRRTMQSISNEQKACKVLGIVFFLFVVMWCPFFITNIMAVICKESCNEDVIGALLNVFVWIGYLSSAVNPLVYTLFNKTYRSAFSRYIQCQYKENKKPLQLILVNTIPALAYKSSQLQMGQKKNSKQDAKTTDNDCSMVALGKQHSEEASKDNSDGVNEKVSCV
Method: Assay for 5-HT2A Receptor Inverse Agonist Activity
• Cell line: adherent cells NIH3T3-5-HT2A R • Cell culture medium: DMEM + 10% FBS (purchased from GBICO) • Cell culture plate: 96-well white/clear bottom plate (purchased from Perkin Elmer) • Detection kit: Bright-Glo™ Luciferase (purchased from Promega) • Detection instrument: BioTek multimode microplate reader
NIH3T3-5HT2A R cells in the logarithmic growth phase were seeded into a 96-well white/clear bottom plate at a density of 1000 cells/well and then cultured overnight in an incubator at 37 °C with 5% CO2. […] Duplicate wells were set up for each concentration. […] After the drug addition, the cells were cultured in the incubator at 37 °C with 5% CO2 for another 120 h. On the sixth day, a Bright-Glo™ Luciferase reagent was added to the cells in a volume equal to that of the cell culture medium. The plate was then incubated in the dark at room temperature for 20 min, with the plate shaker vibrating once every 5 min. The luminescence intensity was detected using a microplate reader, and the cell inhibition rate was calculated. Data were processed using GraphPad Prism 7.0 to obtain the cell inhibition rate curve and calculate IC50.

hERG potassium channels = hERG potassium channels (Homo sapiens, UniProt Q12809); experiment: cell-based
hERG potassium channels, sequence (Q12809 whole entry): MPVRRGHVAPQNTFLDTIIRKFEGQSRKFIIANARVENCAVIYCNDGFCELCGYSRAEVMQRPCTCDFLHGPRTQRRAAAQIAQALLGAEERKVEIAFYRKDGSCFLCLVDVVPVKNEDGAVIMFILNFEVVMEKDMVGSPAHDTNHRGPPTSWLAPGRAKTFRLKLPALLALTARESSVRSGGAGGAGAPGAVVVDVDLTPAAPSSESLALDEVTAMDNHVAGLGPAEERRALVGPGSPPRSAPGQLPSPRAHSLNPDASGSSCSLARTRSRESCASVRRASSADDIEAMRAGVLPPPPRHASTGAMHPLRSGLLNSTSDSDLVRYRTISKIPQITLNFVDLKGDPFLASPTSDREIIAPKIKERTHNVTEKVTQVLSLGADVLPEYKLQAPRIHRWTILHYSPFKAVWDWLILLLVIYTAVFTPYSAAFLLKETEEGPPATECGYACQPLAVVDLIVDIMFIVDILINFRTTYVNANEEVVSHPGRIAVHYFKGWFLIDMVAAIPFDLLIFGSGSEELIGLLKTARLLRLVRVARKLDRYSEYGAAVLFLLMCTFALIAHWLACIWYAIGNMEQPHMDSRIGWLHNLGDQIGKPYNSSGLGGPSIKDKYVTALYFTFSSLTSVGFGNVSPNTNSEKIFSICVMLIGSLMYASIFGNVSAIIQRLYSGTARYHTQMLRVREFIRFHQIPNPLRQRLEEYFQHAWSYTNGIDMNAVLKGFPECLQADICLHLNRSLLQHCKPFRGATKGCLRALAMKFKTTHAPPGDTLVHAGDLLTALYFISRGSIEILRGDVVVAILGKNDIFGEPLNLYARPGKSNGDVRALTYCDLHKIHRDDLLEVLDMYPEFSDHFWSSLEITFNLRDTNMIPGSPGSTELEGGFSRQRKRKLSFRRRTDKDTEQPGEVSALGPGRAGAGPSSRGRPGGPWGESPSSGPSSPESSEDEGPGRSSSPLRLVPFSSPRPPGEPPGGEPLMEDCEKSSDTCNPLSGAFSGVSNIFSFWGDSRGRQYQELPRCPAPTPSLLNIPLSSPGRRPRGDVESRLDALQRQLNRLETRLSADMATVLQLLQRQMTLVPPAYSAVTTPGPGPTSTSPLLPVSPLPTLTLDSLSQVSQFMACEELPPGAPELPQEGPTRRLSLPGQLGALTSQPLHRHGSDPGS
Method: • Species & strain: CHO-hERG cell line (Chinese hamster ovary cells stably expressing hERG channels) • Culture medium: 90% F12, 10% fetal bovine serum, 100 µg/mL G418, and 100 µg/mL Hygromycin B • Culture conditions: incubator at 37 °C with 5% CO2 • Cryopreservation condition: liquid nitrogen
On the day of the test, the compound was diluted with DMSO to an intermediate concentration. Then, 10 µL of the intermediate-concentration compound was transferred to 4990 µL of extracellular fluid, achieving a 500-fold dilution to obtain the final concentration to be tested.
hERG potassium channel currents were recorded at room temperature by the whole-cell patch clamp technique in the CHO (Chinese hamster ovary) cells stably expressing hERG potassium channels. Glass microelectrodes were formed by pulling a glass electrode blank (BF150-86-10, Sutter) using a puller. The tip resistance after perfusion of electrode internal solution was about 2-5 MΩ. The glass microelectrodes could be connected to a patch clamp amplifier after being inserted into amplifier probes. The clamping voltage and data recording were controlled and recorded by a computer with a pClamp 10 software, with a sampling frequency of 10 kHz and a filtering frequency of 2 kHz. After achieving the whole-cell recording, the cells were clamped at -80 mV. The step voltage evoking hERG potassium current (IhERG) was changed from -80 mV to +20 mV by applying a 2 s depolarization voltage, followed by repolarization to -50 mV for 1 s, and then returned to -80 mV. This voltage stimulation was applied every 10 s, and after it was determined that the hERG potassium currents were stable (1 min), the administration process was started. Each test concentration of the compound was applied for at least 1 min, and at least 2 cells (n ≥ 2) were tested for each concentration.

| Structure (SMILES) | pIC50 (5-HT2A receptor) | IC50 (5-HT2A receptor) [nM] | further results |
| --- | --- | --- | --- |
| CN1CC[C@@H](N(Cc2ccc(F)cn2)C(=O)NCc2ccc(OCC(F)(F)F)nc2)[C@H](F)C1 [Compound 67] | < 6.00 |  | Remaining amount% at 60 min [1]: 66.2%; Remaining amount% at 60 min [2]: 81.4% |
| O=C(NCc1ccc(OCC(F)(F)F)nc1)N(Cc1ccc(F)cn1)C1CCNCC1F (single isomer, unassigned) [Compound 56B] |  | 325 | pIC50 (hERG potassium channels): 4.90 |
| CC(C)N1CC[C@@H](N(Cc2ccc(F)cn2)C(=O)NCc2ccc(OCC(F)(F)F)nc2)[C@@H](F)C1 (single isomer, unassigned) [Compound 70A] |  | > 1000 |  |
| CC(C)COc1ccc(CNC(=O)N(Cc2ccc3ncccc3c2)C2CCN(C)CC2)nc1 [Compound 8] | < 6.00 |  |  |
| O=C(NCc1ccc(OCC(F)(F)F)nc1)N(Cc1ccc(F)cn1)C1CCNCC1F (single isomer, unassigned) [Compound 56A] |  | > 1000 | pIC50 (hERG potassium channels): 4.81 |
| CN1CCC(N(Cc2ccc(F)cn2)C(=O)NCc2cnc(OC3CC(F)(F)C3)c(F)c2)CC1 [Compound 19] | 7.48 |  | Remaining amount% at 60 min [1]: 72.49%; Remaining amount% at 60 min [2]: 78.39% |
| CC(C)COc1ccc(CNC(=O)N(Cc2ccc3ncccc3c2)C2CCN(C)CC2)cc1 [Compound 7] | < 6.00 |  | pIC50 (hERG potassium channels): 5.88 |
| CN1CCC(N(Cc2ccc(F)cn2)C(=O)NCc2ccc(OCC3CC3)cn2)CC1 [Compound 3] | 6.83 |  | Remaining amount% at 60 min [1]: 94.1%; Remaining amount% at 60 min [2]: 100.0% |
| CN1CCC(N(Cc2ccc(F)cn2)C(=O)NCc2ccc3nc[nH]c3c2)CC1 [Compound 11] | 6.17 |  |  |
| CCN1CC[C@H](N(Cc2ccc(F)cn2)C(=O)NCc2ccc(OCC(F)(F)F)nc2)[C@H](F)C1 (single isomer, unassigned) [Compound 69B] |  | 156 |  |
| CN1CCC(N(Cc2ccc(F)cn2)C(=O)NCc2ccc(OC3CC(F)(F)C3)nc2)CC1 [Compound 6] |  | 25.4 | Remaining amount% at 60 min [1]: 90.8%; Remaining amount% at 60 min [2]: 98.8% |
| CC(C)COc1ccc(CNC(=O)N(Cc2ccc(F)cc2)C2CCN(C)CC2)cc1 [Pimavanserin, reference compound] |  |  | Remaining amount% at 60 min [1]: 70.7%; Remaining amount% at 60 min [2]: 68.5% |
| CN1CCC(N(Cc2ccc(F)cn2)C(=O)NCc2ccc3ncccc3c2)CC1 [Compound 10] |  | 29.6 | Remaining amount% at 60 min [1]: 71.9%; Remaining amount% at 60 min [2]: 58.6%; pIC50 (hERG potassium channels): 5.41 |
| Cc1cc(CN(C(=O)NCc2ccc(OCC(F)(F)F)nc2)[C@@H]2CCN(C)C[C@@H]2F)nn1C [Compound 82A] | < 6.00 |  |  |
| [2H]C([2H])([2H])N1CC[C@H](N(Cc2ccc(F)cn2)C(=O)NCc2ccc(OCC(F)(F)F)nc2)[C@H](F)C1 (single isomer, unassigned) [Compound 72B] |  | 43.7 |  |
| CN1CCC(N(Cc2ccc(F)cn2)C(=O)NCc2ccc(OCC(F)(F)F)nc2)CC1 [Compound 5] |  | 13.1 | Remaining amount% at 60 min [1]: 99.9%; Remaining amount% at 60 min [2]: 99.8% |
| CN1CCC(N(Cc2ccc(F)cn2)C(=O)NCc2ccc(OCC(F)(F)F)nc2)C2(CC2)C1 (single isomer, unassigned) [Compound 50B] |  | 381 |  |
| Cc1cc(CN(C(=O)NCc2ccc(OCC(F)(F)F)nc2)[C@H]2CCN(C)C[C@H]2F)nn1C [Compound 82B] | 6.18 |  |  |
| CC(C)N1CC[C@H](N(Cc2ccc(F)cn2)C(=O)NCc2ccc(OCC(F)(F)F)nc2)[C@H](F)C1 (single isomer, unassigned) [Compound 70B] |  | 280 |  |
| CN1CC2CCC(C1)C2N(Cc1ccc(F)cn1)C(=O)NCc1ccc(OCC(F)(F)F)nc1 (stereo not shown) [Compound 77] | < 6.00 |  |  |
| CN1CC[C@H](N(Cc2ccc(F)cc2)C(=O)NCc2ccc3c(ccn3C)c2)[C@H](F)C1 (single isomer, unassigned) [Compound 85B] |  | 88.7 |  |

| Structure (SMILES) | pIC50 (5-HT2A receptor) | IC50 (5-HT2A receptor) [nM] | further results |
| --- | --- | --- | --- |
| CN1CCC(N(Cc2ccc(F)cn2)C(=O)NCc2ccc(OCC(F)(F)F)nc2)C(C)(C)C1 (single isomer, unassigned) [Compound 49B] |  | > 1000 |  |
| CN1CCC(N(Cc2ccc(F)cn2)C(=O)NCc2ccc(OCC(F)(F)F)nc2)C(F)(F)C1 (single isomer, unassigned) [Compound 46A] |  | > 1000 | Remaining amount% at 60 min [1]: 1.21%; Remaining amount% at 60 min [2]: 40.77% |
| CN1CC[C@H](N(Cc2ccc(F)cc2)C(=O)NCc2ccc3ncccc3c2)[C@H](F)C1 [Compound 86B] | 7.43 |  |  |
| CN1CC[C@@H](N(Cc2ccc(F)cc2)C(=O)NCc2ccc3c(ccn3C)c2)[C@@H](F)C1 (single isomer, unassigned) [Compound 85A] |  | > 1000 |  |
| [2H]C([2H])([2H])N1CC[C@@H](N(Cc2ccc(F)cn2)C(=O)NCc2ccc(OCC(F)(F)F)nc2)[C@@H](F)C1 (single isomer, unassigned) [Compound 72A] |  | 416 |  |
| CN1CCC(N(Cc2ccc(F)cn2)C(=O)NCc2ccc(OCC3CC3(C)C)cn2)CC1 (stereo not shown) [Compound 4] | < 6.00 |  |  |
| CN1C2CCC1CC(N(Cc1ccc(F)cn1)C(=O)NCc1ccc(OCC(F)(F)F)nc1)C2 (stereo not shown) [Compound 79] | 6.11 |  |  |
| CCN1CC[C@@H](N(Cc2ccc(F)cn2)C(=O)NCc2ccc(OCC(F)(F)F)nc2)[C@@H](F)C1 (single isomer, unassigned) [Compound 69A] |  | > 1000 |  |
| CN1CCC(N(Cc2ccc(F)cn2)C(=O)NCc2ccc3c(c2)c(C(F)(F)F)cn3C)CC1 [Compound 84] | < 6.00 |  |  |
| CN1CCC(N(Cc2ccc(F)cn2)C(=O)NCc2ccc3c(c2)CCC3)CC1 [Compound 60] | 7.19 |  |  |
| CN1CCC(N(Cc2ccc(F)cn2)C(=O)NCc2ccc3occc3c2)CC1 [Compound 57] |  | 51.9 | pIC50 (hERG potassium channels): 5.84 |
| CN1CCC(N(Cc2ccc(F)cn2)C(=O)NCc2ccc(OCC(F)(F)F)nc2)C(C)(C)C1 (single isomer, unassigned) [Compound 49A] |  | 105 |  |
| CN1CCC(N(Cc2ccc(F)cn2)C(=O)NCc2ccc3ccccc3c2)CC1 [Compound 61] | 7.10 |  |  |
| CN1CCC(N(Cc2ccc(F)cn2)C(=O)NCc2ccc3sccc3c2)CC1 [Compound 58] | 7.39 |  |  |
| CN1CCC(N(Cc2ccc(F)cc2)C(=O)NCc2ccc(OCC(F)(F)F)nc2)C2(CC2)C1 (single isomer, unassigned) [Compound 83A] |  | 10.4 |  |
| CN1CCC(N(Cc2ccc(F)cn2)C(=O)NCc2ccc(OC3CC3)cn2)CC1 [Compound 2] | 7.14 |  | Remaining amount% at 60 min [1]: 79.7%; Remaining amount% at 60 min [2]: 76.7% |
| CN1CC[C@@H](N(Cc2ccc(F)cc2)C(=O)NCc2ccc3ncccc3c2)[C@@H](F)C1 [Compound 86A] | < 6.00 |  |  |
| CN1CCC(N(Cc2ccc(F)cc2)C(=O)NCc2ccc(OCC(F)(F)F)nc2)C2(CC2)C1 (single isomer, unassigned) [Compound 83B] |  | 211 |  |
| CN1CCC(N(Cc2ccc(F)cn2)C(=O)NCc2ccc3c(c2)C=CC3)CC1 [Compound 59] | 7.06 |  | pIC50 (hERG potassium channels): 5.83 |
| CN1CCC(N(Cc2ccc(F)cn2)C(=O)NCc2ccc3c(c2)c(F)cn3C)CC1 [Compound 13] | 6.74 |  |  |
